Holding throughout (assay type): biochemical
In one test the target is T1, AKT2 (Homo sapiens, UniProt P31751).
T1 construct: purchased SignalChem
The experiment in a line: AKT Kinase Assay (IMAP fluorescent polarisation) vs AKT2. To be noted: activated AKT2, FAM Crosstide substrate. In short, it runs like this:
(§1)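 IMAP fluorescence-polarisation read-out (485/528 nm) of 5′FAM-Crosstide phosphorylation; IC50 fitted by non-linear regression from % inhibition against vehicle. Fourteen-point half-log compound dilutions sat 45 min at room temperature with activated isoform at linear-range amount. ATP and substrate followed for 1 h, then a 1 h binding-reagent stop.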

In the next test the target is T2, AKT1 (Homo sapiens, UniProt P31749).
T2 construct: purchased SignalChem
Briefly: AKT Kinase Assay (IMAP fluorescent polarisation) vs AKT1. To be noted: activated AKT1, FAM Crosstide substrate. The essentials: as §1

The target of a further test is T3, AKT3 (Homo sapiens, UniProt Q9Y243).
T3 construct: purchased SignalChem
The experiment in a line: AKT Kinase Assay (IMAP fluorescent polarisation) vs AKT3. The following applies: activated AKT3, FAM Crosstide substrate. The essentials: as §1

The record followed here is patent publication US20120309739A1, “AKT / PKB INHIBITORS” (ALMAC DISCOVERY LIMITED, priority 2009, published 2012).

Where a name gives a salt, the structure may show the parent alone.

T1 sequence (P31751 whole entry): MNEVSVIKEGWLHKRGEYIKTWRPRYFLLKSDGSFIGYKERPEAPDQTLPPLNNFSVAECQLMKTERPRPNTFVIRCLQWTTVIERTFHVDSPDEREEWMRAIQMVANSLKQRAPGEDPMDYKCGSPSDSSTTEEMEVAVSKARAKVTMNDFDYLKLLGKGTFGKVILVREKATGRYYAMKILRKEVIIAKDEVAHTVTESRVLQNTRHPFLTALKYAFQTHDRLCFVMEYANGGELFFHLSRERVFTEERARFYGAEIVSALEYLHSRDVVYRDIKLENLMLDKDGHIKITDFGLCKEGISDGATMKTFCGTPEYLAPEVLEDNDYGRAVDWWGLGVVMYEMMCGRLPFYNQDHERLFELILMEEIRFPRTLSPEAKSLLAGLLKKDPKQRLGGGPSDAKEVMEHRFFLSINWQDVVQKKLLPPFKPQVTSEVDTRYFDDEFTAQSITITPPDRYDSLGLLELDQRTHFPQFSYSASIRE
T2 sequence (P31749 whole entry): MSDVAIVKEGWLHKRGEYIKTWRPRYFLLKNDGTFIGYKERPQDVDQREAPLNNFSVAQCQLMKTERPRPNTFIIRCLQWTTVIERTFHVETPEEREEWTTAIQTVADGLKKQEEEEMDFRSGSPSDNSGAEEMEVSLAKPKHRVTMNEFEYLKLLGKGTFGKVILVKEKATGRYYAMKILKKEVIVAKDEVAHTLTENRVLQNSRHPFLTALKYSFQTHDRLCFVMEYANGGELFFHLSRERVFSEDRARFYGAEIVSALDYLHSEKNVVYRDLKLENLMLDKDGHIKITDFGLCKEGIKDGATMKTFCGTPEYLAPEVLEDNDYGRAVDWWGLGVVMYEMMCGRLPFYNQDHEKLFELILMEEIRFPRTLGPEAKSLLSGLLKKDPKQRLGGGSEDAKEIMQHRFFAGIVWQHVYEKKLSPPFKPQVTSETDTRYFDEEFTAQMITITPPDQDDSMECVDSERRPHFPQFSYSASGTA
T3 sequence (Q9Y243 whole entry): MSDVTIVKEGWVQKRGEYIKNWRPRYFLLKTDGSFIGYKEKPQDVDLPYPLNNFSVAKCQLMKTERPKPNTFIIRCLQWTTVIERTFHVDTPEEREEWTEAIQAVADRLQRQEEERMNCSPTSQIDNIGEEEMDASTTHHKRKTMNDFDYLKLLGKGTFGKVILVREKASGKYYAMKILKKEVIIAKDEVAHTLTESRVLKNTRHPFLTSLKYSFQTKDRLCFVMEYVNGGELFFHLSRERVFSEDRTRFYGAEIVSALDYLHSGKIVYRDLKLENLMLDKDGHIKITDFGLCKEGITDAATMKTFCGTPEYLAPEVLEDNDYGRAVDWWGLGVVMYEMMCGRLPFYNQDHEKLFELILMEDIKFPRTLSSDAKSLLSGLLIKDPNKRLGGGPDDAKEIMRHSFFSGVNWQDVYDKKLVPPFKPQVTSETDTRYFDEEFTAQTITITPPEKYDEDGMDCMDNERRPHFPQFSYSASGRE

As for `Cn1c(N2CC[C@H](O)C2)nc2oc(-c3ccc(C4(N)CCC4)cc3)c(-c3ccccc3)c2c1=O` [Example 56, (S)-6-(4-(1-aminocyclobutyl)phenyl)-2-(3-hydroxypyrrolidin-1-yl)-3-methyl-5-phenylfuro[2,3-d]pyrimidin-4(3H)-one], the IC50 at AKT2 was not above 100 nM; on AKT1, 100 to 1000 nM; on AKT3, 1000 to 10000 nM.
On to `Cn1c(N2CC[C@@H](O)C2)nc2oc(-c3ccc(C4(N)CCC4)cc3)c(-c3ccccc3)c2c1=O` [Example 57, (R)-6-(4-(1-Aminocyclobutyl)phenyl)-2-(3-hydroxypyrrolidin-1-yl)-3-methyl-5-phenylfuro[2,3-d]pyrimidin-4(3H)-one], for which the figures for the half-maximal inhibitory concentration (IC50) on AKT2, at AKT1 and at AKT3 were not above 100 nM, 100 to 1000 nM and 1000 to 10000 nM, respectively.
`Cn1c(N2CCCC2)nc2oc(-c3ccc(C4(N)CCC4)cc3)c(-c3ccccc3)c2c1=O` [Example 58, 6-(4-(1-Aminocyclobutyl)phenyl)-3-methyl-5-phenyl-2-(pyrrolidin-1-yl)furo[2,3-d]pyrimidin-4(3H)-one hydrochloride]: the values for the IC50 on AKT2, at AKT1 and on AKT3 were 100 to 1000 nM, 100 to 1000 nM and 1000 to 10000 nM, respectively.
Regarding `Cn1c(N2CCC(O)CC2)nc2oc(-c3ccc(C4(N)CCC4)cc3)c(-c3ccccc3)c2c1=O` [Example 59, 6-(4-(1-Aminocyclobutyl)phenyl)-2-(4-hydroxypiperidin-1-yl)-3-methyl-5-phenylfuro[2,3-d]pyrimidin-4(3H)-one hydrochloride], the IC50 on AKT2 is not above 100 nM; at AKT1, 100 to 1000 nM; at AKT3, 1000 to 10000 nM.
As for `CNC(=O)CNc1nc2oc(-c3ccc(C4(N)CCC4)cc3)c(-c3ccccc3)c2c(=O)n1C` [Example 60, 2-((6-(4-(1-Aminocyclobutyl)phenyl)-3-methyl-4-oxo-5-phenyl-3,4-dihydrofuro[2,3-d]pyrimidin-2-yl)amino)-N-methylacetamide hydrochloride], the IC50 is 100 to 1000 nM on AKT2, 1000 to 10000 nM at AKT1 and more than 10000 nM on AKT3.
Taken in the same sequence, the figures for `Cn1c(N2CC(O)C2)nc2oc(-c3ccc(C4(N)CCC4)cc3)c(-c3ccccc3)c2c1=O` [Example 61, 6-(4-(1-Aminocyclobutyl)phenyl)-2-(3-hydroxyazetidin-1-yl)-3-methyl-5-phenylfuro[2,3-d]pyrimidin-4(3H)-one] were 100 to 1000 nM, 100 to 1000 nM and 1000 to 10000 nM.
Taken in the same sequence, the figures for `C[C@@H](O)CNc1nc2oc(-c3ccc(C4(N)CCC4)cc3)c(-c3ccccc3)c2c(=O)n1C` [Example 62, (R)-6-(4-(1-Aminocyclobutyl)phenyl)-2-((2-hydroxypropyl)amino)-3-methyl-5-phenylfuro[2,3-d]pyrimidin-4(3H)-one] were 100 to 1000 nM, 100 to 1000 nM and 1000 to 10000 nM.
Taken in the same sequence, the figures for `Cn1c(NCC(N)=O)nc2oc(-c3ccc(C4(N)CCC4)cc3)c(-c3ccccc3)c2c1=O` [Example 63, 2-((6-(4-(1-Aminocyclobutyl)phenyl)-3-methyl-4-oxo-5-phenyl-3,4-dihydrofuro[2,3-d]pyrimidin-2-yl)amino)acetamide] were 100 to 1000 nM, 100 to 1000 nM and more than 10000 nM.
For `Cn1c(NCCO)nc2oc(-c3ccc(C4(N)CCC4)cc3)c(-c3ccccc3)c2c1=O` [Example 64, 6-(4-(1-Aminocyclobutyl)phenyl)-2-(2-hydroxyethylamino)-3-methyl-5-phenylfuro[2,3-d]pyrimidin-4(3H)-one hydrochloride], the results for the IC50 on AKT2, on AKT1 and on AKT3 were 100 to 1000 nM, not above 100 nM and 1000 to 10000 nM, respectively.
Taken in the same sequence, the figures for `CNc1nc2oc(-c3ccc(C4(N)CCC4)cc3)c(-c3ccccc3)c2c(=O)n1C` [Example 65, 6-(4-(1-Aminocyclobutyl)phenyl)-3-methyl-2-(methylamino)-5-phenylfuro[2,3-d]pyrimidin-4(3H)-one hydrochloride] were 100 to 1000 nM, 100 to 1000 nM and 1000 to 10000 nM.
Taken in the same sequence, the figures for `Cn1cnc2oc(-c3ccc(C4(N)CCC4)cc3)c(-c3ccccc3)c2c1=O` [Example 66, 6-(4-(1-Aminocyclobutyl)phenyl)-3-methyl-5-phenylfuro[2,3-d]pyrimidin-4(3H)-one] were 100 to 1000 nM, 100 to 1000 nM and more than 10000 nM.
Take `COCCn1c(SC)nc2oc(-c3ccc(C4(N)CCC4)cc3)c(-c3ccccc3)c2c1=O` [Example 67, 6-(4-(1-Aminocyclobutyl)phenyl)-3-(2-methoxyethyl)-2-(methylthio)-5-phenylfuro[2,3-d]pyrimidin-4(3H)-one, HCl]: the IC50 at AKT2 is not above 100 nM; on AKT1, 100 to 1000 nM; at AKT3, 100 to 1000 nM.
For the molecule `CNc1nc(SC)nc2oc(-c3ccc(C4(N)CCC4)cc3)c(-c3ccccc3)c12` [Example 68, 6-(4-(1-Aminocyclobutyl)phenyl)-N-methyl-2-(methylthio)-5-phenylfuro[2,3-d]pyrimidin-4-amine, HCl], the IC50 at AKT2, on AKT1 and on AKT3 was 100 to 1000 nM throughout.
Take `CNc1nc2oc(-c3ccc(C4(N)CCC4)cc3)c(-c3ccccc3)c2c(=O)n1CCOC` [Example 69, 6-(4-(1-Aminocyclobutyl)phenyl)-3-(2-methoxyethyl)-2-(methylamino)-5-phenylfuro[2,3-d]pyrimidin-4(3H)-one, HCl]: the concentration for half-maximal inhibition (IC50) on AKT2 is 100 to 1000 nM; at AKT1 it was 1000 to 10000 nM; at AKT3 it was more than 10000 nM.
Taken in the same sequence, the figures for `CN(C)c1nc(NCCO)nc2oc(-c3ccc(C4(N)CCC4)cc3)c(-c3ccccc3)c12` [Example 70, 2-(6-(4-(1-Aminocyclobutyl)phenyl)-4-(dimethylamino)-5-phenylfuro[2,3-d]pyrimidin-2-ylamino)ethanol, HCl] were 1000 to 10000 nM, 1000 to 10000 nM and more than 10000 nM.
Taken in the same sequence, the figures for `NC1(c2ccc(-c3oc4nc(NCCO)nc(N5CCOCC5)c4c3-c3ccccc3)cc2)CCC1` [Example 71, 2-((6-(4-(1-Aminocyclobutyl)phenyl)-4-morpholino-5-phenylfuro[2,3-d]pyrimidin-2-yl)amino)ethanol] were 1000 to 10000 nM, 1000 to 10000 nM and more than 10000 nM.
Taken in the same sequence, the figures for `Cc1nc(NCCO)nc2oc(-c3ccc(C4(N)CCC4)cc3)c(-c3ccccc3)c12` [Example 72, 2-((6-(4-(1-Aminocyclobutyl)phenyl)-4-methyl-5-phenylfuro[2,3-d]pyrimidin-2-yl)amino)ethanol] were 100 to 1000 nM, 100 to 1000 nM and 1000 to 10000 nM.
For the molecule `NC1(c2ccc(-c3oc4nc(NCCO)nc(C(F)(F)F)c4c3-c3ccccc3)cc2)CCC1` [Example 73, 2-((6-(4-(1-Aminocyclobutyl)phenyl)-5-phenyl-4-(trifluoromethyl)furo[2,3-d]pyrimidin-2-yl)amino)ethanol], the IC50 is 100 to 1000 nM on AKT2, 100 to 1000 nM on AKT1 and more than 10000 nM at AKT3.
Turning to `CSc1nc(C(F)(F)F)c2c(-c3ccccc3)c(-c3ccc(C4(N)CCC4)cc3)oc2n1` [Example 74, 1-(4-(2-(Methylthio)-5-phenyl-4-(trifluoromethyl)furo[2,3-d]pyrimidin-6-yl)phenyl)cyclobutanamine hydrochloride], the IC50 at AKT2 was 1000 to 10000 nM; on AKT1, 1000 to 10000 nM; at AKT3, more than 10000 nM.

As a reminder, the IC50 is the midpoint of a concentration-inhibition curve.
